Read-outs that look alike come from different tables or passages of the source.
What was measured:
Abl SH2 = biological target: T1, Abl SH2 (Homo sapiens, UniProt P00519); experiment: Inhibition of 125I-phosphopeptide binding to immobilized Abl SH2; settings: competitive 125I-phosphopeptide displacement, GST-Abl SH2 fusion protein, pH 7.5, room temperature, 20 minutes
T1 construct: glutathione-S-transferase(GST)-Abl SH2 fusion protein
T1 sequence (P00519 127-217 limits assumed): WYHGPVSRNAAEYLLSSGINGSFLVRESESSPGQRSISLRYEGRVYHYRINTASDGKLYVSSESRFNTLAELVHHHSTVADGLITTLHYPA
Method: The binding affinities of compounds of the present invention to Abl SH2 was determined using a competitive radiolabeled phosphopeptide displacement assay. […] Binding was performed at room temperature for 20 minutes while continuously inverting the plate.

Swiss 3T3 cells = experiment: Inhibition of DNA synthesis as monitored by 3H-thymidine uptake; assay type: cell-based; settings: Swiss 3T3 cells stimulated with growth factor (PDGFbb or Fetal Bovine Serum), 24 hours; compound concentration not given
Method: Inhibition of DNA Synthesis as Monitored by ^3 H-Thymidine Uptake
DNA synthesis occurs when a cell is exposed to Platelet Derived Growth Factor (PDGF). For PDGF-induced DNA synthesis to occur, c-SRC or another member of the SRC gene family is required. The ability of the SRC SH2 inhibitors of the present invention to block PDGF-stimulated DNA synthesis can be assessed using the protocol set forth below.
Swiss 3T3 cells were grown in 12-well plates for 3 days to approximately 50% confluency. The growth media was removed and replaced with 1.0 mL/well of assay buffer (Dulbecco's Modified Eagle Medium containing 0.2% Bovine Serum Albumin), and incubated for 24 hours to arrest growth.
Test compounds (5 μL) were add at 100 times their final concentration. Methyl sulfoxide was used as a control and levels in all wells kept under 1.0% of DMSO. Cells were then stimulated with growth factor (PDGFbb or Fetal Bovine Serum), and allowed to incubate another 24 hours.
During the final 2 hours of treatment, 5 uL of 0.1 μCi/μL ^3 H-thymidine was added to each well (final=0.5 μCi/well)
After incubation the medium was removed by aspiration, and each well was washed twice with ice-cold phosphate buffered saline (0.5 mL/wash). 0.5 mL ice-cold 5% trichloroacetic acid was added to each well and incubated on ice for a minimum 10 minutes. The trichloroacetic acid solution was removed and each well was washed twice with 0.5 mL ice-cold trichloroacetic acid, and then once with ice-cold water (0.5 mL). 0.5 mL of 2% Sodium Dodecyl Sulfate was added to each well to solubilize the cells and allowed to incubate at room temperature for 10-15 minutes. The solubilized cells were transfered to 20 mL scintillation vials. Each well was washed with 0.5 mL of water and combined with the corresponding scintillation vial. 10 mL of Ready-Gel scintillation cocktail was added to each vial and the vials were then counted in a scintillation counter. Results are shown as percent of ^3 H-thymidine uptake relative to control in Table 4 below.

Src SH2 = biological target: T2, Src SH2 (Homo sapiens, UniProt P12931); experiment: Inhibition of 125I-phosphopeptide binding to immobilized Src SH2; settings: competitive 125I-phosphopeptide displacement, GST-Src SH2 fusion protein, pH 7.5, room temperature, 20 minutes
T2 construct: glutathione-S-transferase(GST)-Src SH2 fusion protein
Method: The binding affinities of compounds of the present invention to Src SH2 was determined using a competitive radiolabeled phosphopeptide displacement assay.
Binding was performed at room temperature for 20 minutes while continuously inverting the plate. […] Results are expressed as IC50 values in Table 1 below.

[1] = biological target: T3, Syp(N) SH2-GST binding to PDGF receptor kinase domain (Homo sapiens, UniProt Q06124); experiment: Inhibition of activated PDGF receptor binding to 35S-SH2 domains: Syp(N) SH2-GST; settings: 35S-Syp(N) SH2-GST, immobilized PDGF receptor kinase domain, pH 7.5, room temperature, 30 minutes
T3 construct: S-X-SH2-GST (X=Src, Ab1, Grb2, p85-N, p85-C, Syp-N, and PLCy-C domains)

[2] = biological target: T4, PLCγ(C) SH2-GST binding to PDGF receptor kinase domain (Homo sapiens, UniProt P19174); experiment: Inhibition of activated PDGF receptor binding to 35S-SH2 domains: PLCγ(C) SH2-GST; settings: 35S-PLCγ(C) SH2-GST, immobilized PDGF receptor kinase domain, pH 7.5, room temperature, 30 minutes
T4 construct: S-X-SH2-GST (X=Src, Ab1, Grb2, p85-N, p85-C, Syp-N, and PLCy-C domains)
T4 sequence (P19174 668-756 limits assumed): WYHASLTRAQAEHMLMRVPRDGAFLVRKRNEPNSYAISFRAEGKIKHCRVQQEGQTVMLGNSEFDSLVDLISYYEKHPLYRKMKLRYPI

[3] = biological target: T5, Grb2 SH2-GST binding to PDGF receptor kinase domain (Homo sapiens, UniProt P62993); experiment: Inhibition of activated PDGF receptor binding to 35S-SH2 domains: Grb2 SH2-GST; settings: 35S-Grb2 SH2-GST, immobilized PDGF receptor kinase domain, pH 7.5, room temperature, 30 minutes
T5 construct: S-X-SH2-GST (X=Src, Ab1, Grb2, p85-N, p85-C, Syp-N, and PLCy-C domains)

[4] = biological target: T6, Abl SH2-GST binding to PDGF receptor kinase domain (Homo sapiens, UniProt P00519); experiment: Inhibition of activated PDGF receptor binding to 35S-SH2 domains: Abl SH2-GST
T6 construct: S-X-SH2-GST (X=Src, Ab1, Grb2, p85-N, p85-C, Syp-N, and PLCy-C domains)
T6 sequence (P00519 127-217 limits assumed): T1 sequence (P00519 127-217 limits assumed)
Method: Inhibition of Activated PDGF Receptor Binding to ^35 S-SH2 Domains
The assay was conducted at room temperature for 30 minutes while continuously inverting the plate. The resultant SH2-GST-PDGF receptor kinase complex was separated from excess ^35 S-SH2-GST protein by vacuum filtration and the amount of bound SH2-GST was determined by scintillation counting. Results are expressed as IC50 values and/or % inhibition at specified concentrations in Table 2 below.

[5] = biological target: T7, p85(C) SH2-GST binding to PDGF receptor kinase domain (Homo sapiens, UniProt P27986); experiment: Inhibition of activated PDGF receptor binding to 35S-SH2 domains: p85(C) SH2-GST; settings: 35S-p85(C) SH2-GST, immobilized PDGF receptor kinase domain, pH 7.5, room temperature, 30 minutes
T7 construct: S-X-SH2-GST (X=Src, Ab1, Grb2, p85-N, p85-C, Syp-N, and PLCy-C domains)

[6] = read-out: IC50, Abl SH2 Binding
[7] = read-out: IC50, SRC SH2 Binding

T5 sequence (P62993 60-152 limits assumed): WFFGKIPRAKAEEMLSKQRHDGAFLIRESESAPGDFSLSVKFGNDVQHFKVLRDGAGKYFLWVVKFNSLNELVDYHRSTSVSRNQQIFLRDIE
T3 sequence (Q06124 6-102): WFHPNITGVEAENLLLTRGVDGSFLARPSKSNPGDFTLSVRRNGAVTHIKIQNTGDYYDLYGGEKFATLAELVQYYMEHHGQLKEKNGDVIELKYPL
T2 sequence (P12931 151-248 limits assumed): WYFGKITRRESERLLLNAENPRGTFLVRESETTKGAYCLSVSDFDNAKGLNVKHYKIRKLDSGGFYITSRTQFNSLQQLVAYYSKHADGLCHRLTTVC
T7 sequence (P27986 624-718 limits assumed): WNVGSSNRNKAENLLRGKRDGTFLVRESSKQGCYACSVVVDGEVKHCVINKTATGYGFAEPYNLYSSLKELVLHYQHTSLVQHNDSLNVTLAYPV

CC(=O)N[C@@H](Cc1ccc(C(F)(F)P(=O)(O)O)cc1)C(=O)NC(C)c1ccc(OCC2CCCCC2)c(C(N)=O)c1 (single isomer, unassigned) [Example 63a, [S-(R*,R*)]- or [S-(R*,S*)]-[(4-{2-Acetylamino-2-[1-(3-carbamoyl-4-cyclohexylmethoxy-phenyl)-ethylcarbamoyl]-ethyl]-phenyl)-difluoro-methyl]-phosphonic acid]
IC50 (Abl SH2; [6]): 2 µM
3H-Thymidine Uptake, % Uptake Relative to Control (Swiss 3T3 cells): 73%
IC50 (Src SH2; [7]): 0.3 µM

CC(=O)N[C@@H](Cc1ccc(C(F)(F)P(=O)(O)OCOC(=O)C(C)(C)C)cc1)C(=O)NC(C)c1ccc(OCC2CCCCC2)c(C(N)=O)c1 (single isomer, unassigned) [Example 77, [S-(R*,R*)]- or [S-(R*,S*)]-2,2-Dimethyl-propionic acid {[(4-{2-Acetylamino-2-[1-(3-carbamoyl-4-cyclohexylmethoxy-phenyl)-ethylcarbamoyl]-ethyl}-phenyl)-difluoro-methyl} hydroxy-phosphinoyloxymethyl ester]
3H-Thymidine Uptake, % Uptake Relative to Control (Swiss 3T3 cells): 34%

CC(=O)N[C@@H](Cc1ccc(OP(=O)(O)O)cc1)C(=O)NC(C)c1ccc(OCC2CCCCC2)c(C(N)=O)c1 (mixture of isomers) [Example 51, Phosphoric acid mono-(4-{(S)-2-acetylamino-2-[(RS)-1-(3-carbamoyl-4-cyclohexylmethoxy-phenyl)-ethylcarbamoyl]-ethyl}-phenyl) ester]
IC50 [1]: ~100 µM
IC50 [2]: > 100 µM
IC50 [3]: ~100 µM
IC50 [4]: 12.1 µM
IC50 [5]: > 100 µM

CC[C@H](NC(=O)[C@H](Cc1ccc(C(F)(F)P(=O)(O)OCOC(=O)C(C)(C)C)cc1)NC(C)=O)C(=O)N(C)CCCC1CCCCC1 [Example 55, [S-(R*,R*)]-2,2-Dimethyl-propionic acid {[4-(2-acetylamino-2-{1-[(3-cyclohexyl-propyl)-methyl-carbamoyl]-propylcarbamoyl}-ethyl)-phenyl]-difluoro-methyl}-hydroxy-phosphinoyloxymethyl ester]
IC50 (Abl SH2; [6]): > 100 µM
3H-Thymidine Uptake, % Uptake Relative to Control (Swiss 3T3 cells): 61%
IC50 (Src SH2; [7]): > 100 µM

CC(=O)N[C@@H](Cc1ccc(C(F)(F)P(=O)(O)O)cc1)C(=O)N[C@@H](CCC(=O)O)C(=O)N(C)CCCC1CCCCC1 [Example 5, [S-(R*,R*)]-4-{2-Acetylamino-3-[4-(difluoro-phosphonomethyl)-phenyl]-propionylamino}-4-[(3-cyclohexylpropyl)-methyl-carbamoyl]-butyric acid]
IC50 [1]: > 100 µM
IC50 [2]: > 100 µM
IC50 [3]: > 100 µM
IC50 [5]: > 100 µM

CC(=O)N[C@@H](Cc1ccc(OP(=O)(O)O)cc1)C(=O)N[C@@H](CCC(=O)O)C(=O)N1CCC[C@@H]1CCc1ccccc1 [Example 11, 4-[(S)-2-Acetylamino-3-(4-phosphonooxy-phenyl)-(S)-propionylamino]-5-oxo-5-((S)-2-phenethyl-pyrrolidin-1-yl)-pentanoic acid]
IC50 (Abl SH2; [6]): 17 µM
IC50 (Src SH2; [7]): 2.1 µM

CC(=O)N[C@@H](Cc1ccc(OP(=O)(O)O)cc1)C(=O)NC(C)c1ccc(OCc2cc(C)cc(C)c2)c(C(N)=O)c1 (mixture of isomers) [Example 68, Phosphoric acid mono-[4-((S)-2-acetylamino-2-{(RS)-1-[3-carbamoyl-4-(3,5-dimethyl-benzyloxy)-phenyl]-ethylcarbamoyl}-ethyl)-phenyl] ester]
IC50 (Abl SH2; IC50, Abl SH2 Binding): 5.7 µM
IC50 (Src SH2; IC50, SRC SH2 Binding): 1.1 µM

CN(CCCC1CCCCC1)C(=O)[C@H](CCC(=O)O)NC(=O)NCc1ccc(OP(=O)(O)O)cc1 [Example 61, (S)-4-[(3-Cyclohexyl-propyl)--methyl-carbamoyl]-4-[3-(4-phosphonooxy-benzyl)-ureido]-butyric acid]
IC50 (Abl SH2; IC50, Abl SH2 Binding): ~100 µM
IC50 (Src SH2; IC50, SRC SH2 Binding): 16 µM

CC(=O)N[C@@H](Cc1ccc(OP(=O)(O)O)cc1)C(=O)NC(C)c1ccc(OC(C)CC2CCCCC2)c(C(N)=O)c1 (single isomer, unassigned) [Example 64a, Phosphoric acid mono-[4-(2-acetylamino-2-{1-[3-carbamoyl-4-(2-cyclohexyl-1-methyl-ethoxy)-phenyl]-ethylcarbamoyl]-ethyl)-phenyl] ester]
IC50 (Abl SH2; IC50, Abl SH2 Binding): 2.4 µM
IC50 (Src SH2; IC50, SRC SH2 Binding): 0.6 µM

CCC(CC)(NC(=O)[C@H](Cc1ccc(OP(=O)(O)O)cc1)NC(C)=O)C(=O)NCCCc1ccccc1 [Example 57, (S)-Phosphoric acid mono-(4-{2-acetylamino-2-[1-ethyl-1-(3-phenyl-propylcarbamoyl)-propylcarbamoyl]-ethyl}-phenyl) ester]
IC50 (Abl SH2; IC50, Abl SH2 Binding): 20 µM
IC50 (Src SH2; IC50, SRC SH2 Binding): 33 µM

NC(=O)c1cc(CNC(=O)NCc2ccc(OP(=O)(O)O)cc2)ccc1OCC1CCCCC1 [Example 76, Phosphoric acid mono-{4-[3-(3-carbamoyl-4-cyclohexylmethoxy-benzyl)-ureidomethyl]-phenyl} ester]
IC50 (Abl SH2; IC50, Abl SH2 Binding): > 100 µM
IC50 (Src SH2; IC50, SRC SH2 Binding): 34 µM

CC(=O)N[C@@H](Cc1ccc(OP(=O)(O)O)cc1)C(=O)N[C@@H](CCC(=O)O)C(=O)N1CCC[C@@H]1CCC1CCCCC1 [Example 12, 4-[(S)-2-Acetylamino-3-(4-phosphonooxy-phenyl)-(S)-propionylamino]-5-[2-((S)-2-cyclohexyl-ethyl)-pyrrolidin-1-yl]-5-oxo-pentanoic acid]
IC50 (Abl SH2; [6]): 2.5 µM
IC50 (Src SH2; [7]): 0.7 µM

CC(=O)N[C@@H](Cc1ccc(OP(=O)(O)O)cc1)C(=O)N[C@@H](CCC(=O)O)C(=O)N(C)CCCC1CCCCC1 [Example 1, [S-(R*,R*)]-4-[2-Acetylamino-3-(4-phosphonooxy-phenyl)-propionylamino]-4-[(3-cyclohexyl-propyl)-methylcarbamoyl]-butyric acid]
IC50 [1]: > 100 µM
IC50 [2]: > 100 µM
IC50 [3]: > 100 µM
IC50 [5]: > 100 µM

CN(C)C(=O)N[C@@H](Cc1ccc(OP(=O)(O)O)cc1)C(=O)N[C@@H](CCC(=O)O)C(=O)N(C)CCCC1CCCCC1 [Example 59, [S-(R*,R*)]-4-[(3-Cyclohexyl-propyl)-methyl-carbamoyl]-4-[2-(3,3-dimethyl-ureido)-3-(4-phosphonooxy-phenyl)-propionylaminol-butyric acid]
IC50 (Abl SH2; IC50, Abl SH2 Binding): 4.5 µM
IC50 (Src SH2; IC50, SRC SH2 Binding): 1.1 µM

CN(CCCC1CCCCC1)C(=O)[C@H](CCC(=O)O)NC(=O)c1ccc(OP(=O)(O)O)cc1 [Example 62, (S)-4-[(3-Cyclohexyl-propyl)-methyl-carbamoyl]-4-(4-phosphonooxy-benzoylamino)-butyric acid]
IC50 (Abl SH2; IC50, Abl SH2 Binding): 44 µM
IC50 (Src SH2; IC50, SRC SH2 Binding): 8.3 µM

— US5922697A, “Compounds, compositions and methods for inhibiting the binding of proteins containing an SH2 domain to cognate phosphorylated proteins” (Warner-Lambert Company, priority 1998, dated 1999)
